Test results as given in patent US6019959A, “Oligomeric compounds that contain perfluoroalkyl, process for their production, and their use in NMR diagnosis” (Schering Aktiengesellschaft, priority 1998, dated 2000).

Key:
[1] = T1-relaxivity of commercially available 1H-NMR contrast media; type: physicochemical; conditions: 39° C., 0.47 T
[2] = Determination of the T1-relaxivity with a Minispec pc 20 in human plasma; type: physicochemical; conditions: 0.47 T (20 MHz), 37° C., human plasma, normalized to one metal atom
Experimental: Determination of the T^1 -Relaxivity of Selected Compounds
The relaxivity of the following compounds was determined
with a Minispec pc 20 (20 MHz, 0.47 T) at 37° C. in human plasma
and compared to that of Gd-DTPA-polylysine and Magnevist^(R) as
comparison substances. Since the substances according to the
invention contain more than one metal atom, the relaxivity was
normalized to one metal atom for purposes of comparison.

[3] = In-vivo comparison with an intravascular and an extracellular contrast medium in blocked kidneys (diffusibility); set-up: species or system rats; conditions: i.v., blocked renal vessels, compound 2 set at 100%
Experimental: As test animals, three 250 g male (Schering-SPF) rats were used. The renal vessels in the animals were blocked to prevent renal elimination and, assuming that fecal elimination is negligible, to obtain a measure of the diffusibility of the formulation according to the invention from the blood into the surrounding tissue. 0.5 ml (in each case 10 mmol/l) of the following contrast medium solution was intravenously administered per animal: a mixture consisting of 1 part each of the compound of Example 1g, named compound 1 below, of intravascular contrast medium Eu-DTPA-albumin, named compound 2 below and of extracellular contrast medium Dy-DTPA, named compound 3 below. Via a catheter in the common carotid artery, blood samples were taken at the following times: 15, 30, 45, 60, 90 seconds; 3, 5, 10, 15 minutes p.i. In the blood samples that were obtained, in each case the concentrations of gadolinium (Gd), europium (Eu) and dysprosium (Dy) were measured in parallel using atom emission spectrometry (ICP-AES). The proportion of the intravascular contrast medium compound 2 (Eu) that remains in the blood space was set at 100%. It was possible to compare the proportion of the formulation according to the invention of compound 1 (Gd) and compound 3 (Dy, extracellular comparison substance) that remained in the blood space by the different labeling in the same animal, and the proportion was set as a percentage of the concentration of compound 2.

[4] = Blood elimination kinetics after one-time intravenous administration; type: in vivo, rats; conditions: two-compartment model, n=3
Experimental: For this purpose, after one-time intravenous administration (via a caudal vein) of the substances (dose: ≈100 μmol of metal per kg of body weight), the substance concentration in the blood (based on the Gd or Dy content) was determined over a period of up to 120 minutes p.i. using ICP-AES. The pharmacokinetic parameters: distribution volume (Vss), total clearance (CLtot) and elimination half-life (tb) were calculated with a special computer program (TOPFIT 2.0; Thomae, Schering, Godecke), whereby a two-compartment distribution model was used as a basis.
The Gd and Dy contents in the blood were determined using ICP-AES.
For this purpose, after one-time intravenous administration (via a caudal vein) of the substances (dose: ≈100 μmol of metal per kg of body weight), the substance concentration in the blood (based on the metal content) was determined over a period of up to 120 minutes p.i. using ICP-AES. The pharmacokinetic parameters: distribution volume (Vss), total clearance (CLtot) and elimination half-life (tb) were calculated with a special computer program (TOPFIT 2.0; Thomae, Schering, Godecke), whereby a two-compartment distribution model was used as a basis.

[5] = Table 3, i.v. ≈100 μmol metal/kg
[6] = Table 4, i.v. ≈100 μmol metal/kg

C[NH2+]C[C@H](O)[C@@H](O)[C@H](O)[C@H](O)CO.C[NH2+]C[C@H](O)[C@@H](O)[C@H](O)[C@H](O)CO.O=C([O-])CN(CCN(CC(=O)[O-])CC(=O)[O-])CCN(CC(=O)[O-])CC(=O)[O-].[Gd+3] [Magnevist, di--N-methylglucamine salt of the Gd-DTPA complex, reference compound]
T^1-relaxivity [1]: 3.5 to 4.9 mM⁻¹ s⁻¹
R^1 (T^1-relaxivity) [2]: 4.8 L/mmol/s

CNC(=O)CN(CCN(CCN(CC(=O)[O-])CC(=O)NC)CC(=O)[O-])CC(=O)[O-].[Gd+3] [Omniscan]
T^1-relaxivity [1]: 3.5 to 4.9 mM⁻¹ s⁻¹

1,4,7-Tris{N-3,3,6-tris(carboxylatomethyl)-6-[N-3-aza-2,5-dioxo-pentane-1,5-diyl]-3,6,9-triazaundecane-1,11-dioic acid, Gd complex, monosodium salt}-10-2H,2H,4H,4H,5H,5H-3-oxa-perfluoro-tridecanoyl)-1,4,7,10-tetraazacyclododecane [8b)]
R^1 (T^1-relaxivity) [2]: 20.6 L/mmol/s

C[NH2+]C[C@H](O)[C@@H](O)[C@H](O)[C@H](O)CO.O=C([O-])CN1CCN(CC(=O)[O-])CCN(CC(=O)[O-])CCN(CC(=O)[O-])CC1.[Gd+3] [Dotarem, meglumine salt of Gd-DOTA (Gadolinium(III)complex of 1,4,7,10-tetracarboxymethyl-1,4,7,10-tetraazacyclododecane)]
T^1-relaxivity [1]: 3.5 to 4.9 mM⁻¹ s⁻¹

1,4,7-Tris{N-3,9-bis(carboxylatomethyl)-6-[N-3-aza-2,5-dioxo-pentane-1,5-diyl]-3,6,9-triazaundecane-1-carboxylato-11-acid, Gd complex, sodium salt}-10-[N-acetyl-(2-amino-N-ethyl-N-perfluorooctylsulfonyl)]-1,4,7,10-tetraazacyclododecane [18d)]
R^1 (T^1-relaxivity) [2]: 23.0 L/mmol/s

1,4,7-Tris{N-hexanoyl-2,6-bis<amino-N-acetyl-2-[3,9-bis(N-carboxylato-methyl)-6-yl-3,6,9-triazaundecane-1-carboxylato-11-acid, Gd complex, monosodium salt]>}-10-[N-acetyl-(2-amino-N-ethyl-N-perfluorooctylsulfonyl)]-1,4,7,10- tetraazacyclododecane [26d)]
R^1 (T^1-relaxivity) [2]: 13.0 L/mmol/s

Eu-DTPA-albumin [compound 2]
Percentage of the dose that remains in the blood space ([3]; 30 seconds p.i.): 100%
Percentage of the dose that remains in the blood space ([3]; 3 minutes p.i.): 100%
Percentage of the dose that remains in the blood space ([3]; 10 minutes p.i.): 100%

Dy-DTPA [reference compound]
Percentage of the dose that remains in the blood space ([3]; 30 seconds p.i.): 48%
Percentage of the dose that remains in the blood space ([3]; 3 minutes p.i.): 25%
Percentage of the dose that remains in the blood space ([3]; 10 minutes p.i.): 21%
Distribution volume Vss (MEAN) [4, 5]: 0.17 Ukg
Elimination half-life tβ (MEAN) [4, 5]: 20.7 min
Total clearance CLtot (MEAN) [4, 5]: 6.75 mU (min*kg)
tα (MEAN) [4, 5]: 2.07 min
Distribution volume Vss (MEAN) [4, 6]: 0.17 Ukg
Elimination half-life tβ (MEAN) [4, 6]: 18.5 min
Total clearance CLtot (MEAN) [4, 6]: 6.90 mL·kg·min
tα (MEAN) [4, 6]: 1.48 min

CC(O)CN1CCN(CC(=O)[O-])CCN(CC(=O)[O-])CCN(CC(=O)[O-])CC1.[Gd+3] (stereo not shown) [Pro Hance]
T^1-relaxivity [1]: 3.5 to 4.9 mM⁻¹ s⁻¹

1,4,7-Tris{N-hexanoyl-2,6-bis<amino-N-acetyl-2-[aminopropanoyl-(2-yl)]-[1,4,7-tris(N-carboxylatomethyl)-1,4,7,10-tetraazacyclododecan-10-yl, Gd complex]>}-10-[N-acetyl-(2-amino-N-ethyl-N-perfluorooctylsulfonyl)]-1,4,7,10-tetraazacyclododecane [Example 27]
R^1 (T^1-relaxivity) [2]: 16.1 L/mmol/s

1,4,7-Tris{N-[3,9-bis(N-carboxylatomethyl)]-6-[N-(3-aza-2,5-dioxo-pentane)-1,5-diyl]-3,6,9-triazaundecane-1-carboxylato-11-acid, Gd complex, monosodium salt}-10-N-{undecanoyl-<11-amino-N-[acetyl-(2-amino-N-ethyl-N-perfluorooctyl-sulfonyl)]>}-1,4,7,10-tetraazacyclododecane [25f)]
R^1 (T^1-relaxivity) [2]: 15.1 L/mmol/s

1,4,7-Tris{1,4,7-tris-(N-carboxylatomethyl)-10-[N-(4,7-diaza-3,6,9-trioxo)-nonane-2,9-diyl]-1,4,7,10-tetraazacyclododecane, Gd complex-10-(N-22F,22F,22F,21F,21F,20F,20F,19F,19F,18F,18F,17F,17F,16F,16F,15F,15F-heptadecafluoro-12-oxa-docosanoyl)-1,4,7,10-tetraazacyclododecane [14e)]
R^1 (T^1-relaxivity) [2]: 19.3 L/mmol/s
